For data set [1], the target named is T1, Melanin-concentrating hormone receptor 1 (Homo sapiens, UniProt Q99705). The experiment in a line: Displacement of [125I]MCH from human MCHR1 expressed in HEK293 cells. The format is cell-based. In general terms: Displacement assays read how much labelled ligand stays bound in the presence of the test substance.
Data set [2] concerns the target T1, Melanin-concentrating hormone receptor 1. The data set can be described thus: Antagonist activity at human MCHR1 expressed in HEK293 cells assessed as [35S]GTPgammaS accumulation. In kind it is functional, cell-based.
Another data set has as its system Mus musculus. The data set can be described thus: Intrinsic clearance in C57BL mouse at 20 uM/kg, iv. The format is ADME, organism-based. To be noted: in vivo.
The nature of data set [3]: Fraction unbound in human plasma. The format is ADME, cell-free.
The subject of a further data set is Liver microsomes. The experiment in a line: Metabolic stability in human liver microsomes. The format is ADME, Microsome. In general terms: Liver microsomes are a subcellular fraction often used to study metabolism.

Molecules are shown by their SMILES. Bounds are passed on as bounds.

T1 sequence (Q99705 whole entry): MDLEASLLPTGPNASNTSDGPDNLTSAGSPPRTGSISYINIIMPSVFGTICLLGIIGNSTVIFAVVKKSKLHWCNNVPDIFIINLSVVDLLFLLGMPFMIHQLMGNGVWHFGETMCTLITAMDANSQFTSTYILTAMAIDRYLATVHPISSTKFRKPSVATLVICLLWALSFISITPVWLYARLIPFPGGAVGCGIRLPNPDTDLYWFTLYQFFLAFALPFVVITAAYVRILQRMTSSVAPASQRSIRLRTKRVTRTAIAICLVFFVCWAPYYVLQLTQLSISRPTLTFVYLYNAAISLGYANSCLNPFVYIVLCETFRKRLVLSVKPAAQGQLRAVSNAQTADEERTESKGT

A word on the IC50: it is the concentration that inhibits the measured activity by half. `O=C(COc1cccc(Cl)c1)N1CCC(Nc2ccn(-c3ccc(C(F)(F)F)cn3)c2)CC1` returned a concentration for half-maximal inhibition (IC50) in data set [1] of 1.25 µM.

In the case of `O=C(COc1cccc(Cl)c1)NC1CCN(Cc2ccn(C3CCCC3)c2)CC1`, the IC50 in data set [1] is more than 33 µM.

`O=C(COc1cccc(Cl)c1)NC1CCN(Cc2ccc3[nH]ccc3c2)CC1` registered an IC50 in data set [1] of 2.34 µM.

Compound `O=C(COc1cccc(Cl)c1)NC1CCN(Cc2cccc(-n3cccc3)c2)CC1` registered an IC50 in data set [1] of 0.297 µM.

Compound `Cc1cccc(OCC(=O)NCC2CN(Cc3ccn(-c4ccc(C(C)(C)C)cn4)c3)C2)c1` registered a half-maximal inhibitory concentration (IC50) in data set [1] of 0.169 µM.

Compound `FC(F)(F)c1ccc(-n2ccc(CN3CCC(NCCOc4cccc(Cl)c4)CC3)c2)cc1` came in with a 50% inhibitory concentration (IC50) in data set [1] of 0.636 µM.

As to `O=C(COc1cccc(Cl)c1)NC1CCN(Cc2cn(-c3ccc(C(F)(F)F)cc3)cn2)CC1`, the IC50 in data set [1] came out at 2.14 µM.

As for `Cc1c(-c2ccccc2)[nH]c(=O)n1C1CCN(Cc2ccn(-c3ccc(C(F)(F)F)cc3)c2)CC1`, the concentration for half-maximal inhibition (IC50) in data set [2] is 0.071 µM; in data set [1] it was 0.026 µM.

Turning to `Fc1ccc(-c2cc(C3CCN(Cc4ccn(-c5ccc(C(F)(F)F)cc5)c4)CC3)n[nH]2)cc1`, the values for the IC50 in data set [2] and in data set [1] were 0.058 µM and 0.037 µM, respectively.

Consider `O=C(NC1CCN(Cc2ccc(Cl)c(Cl)c2)CC1)c1csc([N+](=O)[O-])c1`, for which the IC50 in data set [2] amounted to 0.804 µM; in data set [1] it was 0.092 µM.

With `COc1ccc(-n2ccc(CN3CCC(NC(=O)COc4cccc(Cl)c4)CC3)c2)cc1`, the half-inhibitory concentration (IC50) in data set [2] was determined as 0.09 µM; in data set [1] it was 0.1 µM.

As for `O=C(COc1cccc(Cl)c1)NC1CCN(Cc2ccc3ccccc3c2)CC1`, the half-inhibitory concentration (IC50) worked out at 0.104 µM in data set [2] and 0.041 µM in data set [1].

`O=C(COc1cccc(Cl)c1)NC1CCN(Cc2cc3c(cc2Cl)OCO3)CC1`: the IC50 in data set [2] is 0.505 µM; in data set [1], 0.082 µM.

The compound `O=C(COc1cccc(Cl)c1)NC1CCN(Cc2ccn(-c3ccccc3)c2)CC1` displayed an IC50 in data set [1] of 0.71 µM.

The compound `O=C(COc1ccc(F)c(F)c1)N[C@H]1CC[C@H](Nc2ccn(-c3ccc(C(F)(F)F)cc3)c2)C1` had an IC50 in data set [1] of 2.26 µM.

`O=C(COc1cccc(Cl)c1)NC1CCN(Cc2ccc(-c3ccccn3)cc2)CC1` showed an IC50 in data set [1] of 0.12 µM.

Take `Fc1ccc(-c2cc(C3CCN(Cc4ccn(-c5ccc(C(F)(F)F)cc5)c4)CC3)on2)cc1`: in data set [1], the IC50 was 0.066 µM.

In the case of `O=C(COc1cccc(Cl)c1)NC1CCN(Cc2ccn(-c3ccc(C(F)(F)F)cn3)c2)CC1`, the concentration for half-maximal inhibition (IC50) in data set [2] is 0.092 µM; in data set [1], 0.048 µM.

With `O=C(COc1cccc(Cl)c1)NC1CN(Cc2ccn(-c3ccc(C(F)(F)F)cc3)c2)C1`, the figures for the 50% inhibitory concentration (IC50) in data set [2] and in data set [1] were 0.073 µM and 0.042 µM, respectively.

In the case of `Fc1ccc(-c2ncc(C3CCN(Cc4ccn(-c5ccc(C(F)(F)F)cc5)c4)CC3)[nH]2)cc1`, the IC50 in data set [1] is 0.113 µM.

`O=C(COc1cccc(Cl)c1)NC1CCN(Cc2ccc(-c3ccc(OC(F)(F)F)cc3)o2)CC1`: the IC50 is 0.103 µM in data set [2] and 0.078 µM in data set [1].

Regarding `Fc1ccc(-c2c[nH]c(C3CCN(Cc4ccn(-c5ccc(C(F)(F)F)cc5)c4)CC3)n2)cc1`, the values for the IC50 in data set [2] and in data set [1] were 0.122 µM and 0.02 µM, respectively.

For `O=C(COc1cccc(Cl)c1)NCC1CCN(Cc2ccn(-c3ccc(C(F)(F)F)cn3)c2)CC1`, in data set [1], the 50% inhibitory concentration (IC50) was found to be 0.313 µM.

In turn, `O=C(COc1cccc(Cl)c1)NC1CCN(Cc2ccc(-c3ccc(C(F)(F)F)cn3)o2)CC1` returned a half-maximal inhibitory concentration (IC50) in data set [1] of 0.927 µM.

Usually fraction unbound stands for free concentration divided by total concentration. Low values mean little free substance, high ones much free substance. As to `O=C(COc1cccc(Cl)c1)NC1CCN(Cc2ccn(-c3ccc(OC(F)(F)F)cc3)c2)CC1`, the IC50 in data set [2] turned out to be 0.015 µM; in data set [1] it was 0.031 µM. The compound further showed a CL in the data set on Mus musculus of 34 mL/min/kg. The fraction unbound in data set [3] was 0.032. In the data set on Liver microsomes, this compound gave a clearance of 21 µL/min/mg.

`O=C(COc1cccc(Cl)c1)NC1CCN(Cc2ccn(-c3ccon3)c2)CC1` showed an IC50 in data set [1] of 1.5 µM.

As for `O=C(COc1cccc(Cl)c1)NC1CCN(Cc2ccn(-c3ccc(C(F)(F)F)cc3)c2)CC1`, the CL with Mus musculus stood at 41 mL/min/kg. For the same compound, in data set [3], the fraction unbound was determined as 0.012. The clearance in the data set on Liver microsomes came out at 38 µL/min/mg.

`Cc1cc(CN2CCC(NC(=O)COc3cccc(Cl)c3)CC2)c(C)n1-c1ccccc1` displayed an IC50 in data set [1] of 9.65 µM.

`O=C(COc1cccc(Cl)c1)NC1CCCN(Cc2ccn(-c3ccc(C(F)(F)F)cn3)c2)C1` (stereo not given) registered a half-inhibitory concentration (IC50) in data set [1] of 3.05 µM.

For the compound `O=C(COc1cccc(Cl)c1)NC1CCN(Cc2ccc3c(c2)OCCO3)CC1`, the IC50 in data set [1] is 0.903 µM.

With `CN(C(=O)COc1cccc(Cl)c1)C1CCN(Cc2ccn(-c3ccc(C(F)(F)F)cc3)c2)CC1`, in data set [1], the IC50 was 0.109 µM.

For the compound `O=C(COc1cccc(Cl)c1)NCC1CCCN(Cc2ccn(-c3ccc(C(F)(F)F)cn3)c2)C1` (stereo not given), the IC50 in data set [1] worked out at 0.303 µM.

Take `O=C(COc1cccc(Cl)c1)N[C@H]1[C@@H]2CN(Cc3ccn(-c4ccc(C(F)(F)F)cc4)c3)C[C@@H]21`: the concentration for half-maximal inhibition (IC50) in data set [1] is 0.111 µM.

With `CC(c1ccn(-c2ccc(C(F)(F)F)cc2)c1)N1CCC(NC(=O)COc2cccc(Cl)c2)CC1` (stereo not given), the IC50 in data set [2] is 0.117 µM; in data set [1], 0.043 µM.

In the case of `O=C(COc1cccc(Cl)c1)NC1CCN(Cc2csc(-c3ccc(Cl)cc3)n2)CC1`, the half-inhibitory concentration (IC50) in data set [1] worked out at 0.347 µM.

Turning to `N#Cc1ccc(-n2ccc(CN3CCC(NC(=O)COc4cccc(Cl)c4)CC3)c2)cc1`, the 50% inhibitory concentration (IC50) in data set [2] came to 0.145 µM; in data set [1], 0.052 µM.

As for `Fc1ccc(-c2cc(C3CCN(Cc4ccn(-c5ccc(C(F)(F)F)cc5)c4)CC3)no2)cc1`, the 50% inhibitory concentration (IC50) in data set [2] is 0.067 µM; in data set [1], 0.025 µM.

On to `O=C(COc1ccc(F)c(F)c1)NC1CCN(Cc2ccn(-c3ccc(C(F)(F)F)cc3)c2)C1` (stereo not given), for which the concentration for half-maximal inhibition (IC50) is 0.048 µM in data set [2] and 0.029 µM in data set [1].

In data set [1], `O=C(COc1ccc(F)c(F)c1)NCC1CN(Cc2ccn(-c3ccc(C(F)(F)F)cc3)c2)CCO1` (stereo not given) yielded an IC50 of 0.269 µM.

Compound `O=C(COc1ccc(F)c(F)c1)N[C@H]1CC[C@@H](Nc2ccn(-c3ccc(C(F)(F)F)cc3)c2)CC1` had an IC50 in data set [1] of 0.104 µM.
